From patent US20100105688A1, “PHARMACEUTICAL COMPOSITIONS COMPRISING 3,5-DIAMINO-6-(2,3-DICHLOPHENYL)-1,2,4-TRIAZINE OR R(-)-2,4-DIAMINO-5-(2,3-DICHLOROPHENYL)-6-FLUOROMETHYL PYRIMIDINE AND AN NK1” (GLAXO GROUP LIMITED, priority 2007, published 2010)

Test system: rats
Test: FCA (Freunds Complete Adjuvant) model of inflammatory hypersensitivity to pain (weight bearing)
Type: in vivo, rat
Method: • Naïve weight bearing readings were taken. The hypersensitivity to pain was measured using the Rat incapacitance tester (Linton instruments). This instrument is serviced once a year and should be regularly calibrated • All rats then received an intraplantar injection of 100 ul of FCA (Freund's complete adjuvant) into the left hind paw. The FCA was sonicated for 15 minutes prior to use. • Approximately 23 hrs after administration of the FCA, pre-dose weight bearing readings were taken. All animals were then ranked and randomised for dosing according to their FCA window (predose difference in grams−naïve difference in grams). […] Celebrex 10 mg/kg p.o. (positive control) as appropriate according to ranking and randomisation. • Animals were assessed in the weight bearing apparatus 1 hour post dose. • The study was blind and randomised by FCA window using the Latin square method. • % reversals were calculated by using the naïve, pre-dose and post dose values as follows: % Reversal=[(Pre-dose−Post-dose)/(Pre-dose−Naïve)]×100 • Graphs and ED50 were calculated where appropriate using Prism4. • Statistical analysis was carried out using ANOVA followed by calculating the least square means using the statistical package Statistica 6.1 • From the dose response curves the ED20 was determined for the combination study • Naïve weight bearing readings were taken. The hypersensitivity to pain was measured using the Rat incapacitance tester (Linton instruments). This instrument is serviced once a year and should be regularly calibrated • All rats then received an intraplantar injection of 100 ul of FCA (Freund's complete adjuvant) into the left hind paw. The FCA was sonicated for 15 minutes prior to use. • Approximately 23 hrs after administration of the FCA, pre-dose weight bearing readings were taken. All animals were then ranked and randomised for dosing according to their FCA window (predose difference in grams−naïve difference in grams). […] See table 5 for details of the groups • Animals were assessed in the weight bearing apparatus 1 hour post dose. • The study was blind and randomised by FCA window using the Latin square method. • % reversals were calculated by using the naïve, pre-dose and post dose values as follows: % Reversal=[(Pre-dose−Post-dose)/(Pre-dose−Naïve)]×100 • Statistical analysis was carried out using ANOVA followed by calculating the least square means using the statistical package Statistica 6.1 • ED50 and ED20 values and graphs were calculated using prism5 • Naïve weight bearing readings were taken. The hypersensitivity to pain was measured using the Rat incapacitance tester (Linton instruments). This instrument is serviced once a year and should be regularly calibrated • All rats then received an intraplantar injection of 100 ul of FCA (Freund's complete adjuvant) into the left hind paw. The FCA was sonicated for 15 minutes prior to use. • Approximately 23 hrs after administration of the FCA, pre-dose weight bearing readings were taken. All animals were then ranked and randomised for dosing according to their FCA window (predose difference in grams—naïve difference in grams). Rats with FCA window less than 30 g were excluded from the study. • Animals were then dosed with the following in a fixed dose ratio of 1.25:1 according to ranking and randomisation. (Table 6) […] Graphs and ED50 were calculated where appropriate using Prism5 • Statistical analysis was carried out using ANOVA followed by calculating the least square means using the statistical package Statistica 6.1

In the case of `Nc1nnc(-c2cccc(Cl)c2Cl)c(N)n1` [ENa7, 3,5-diamino-6-(2,3-dichlorophenyl)-1,2,4-triazine, reference compound], the ED50 (Rattus norvegicus, po, compound alone, 0.1-3.0 mg/kg p.o. as printed, 1 hour post dose, range in brackets as printed, read-out: ED50, reversal of the FCA induced hypersensitivity) is reported as 0.35 mg/kg, the “reversal of the FCA induced hypersensitivity” value (compound alone, 0.1-3.0 mg/kg, 1 hour post dose) is reported as “dose related reversal” and the “effect on the FCA induced hypersensitivity” value (each compound alone at its ED20 dose (ENa7 0.1 mg/kg p.o.; ENK6 0.08 mg/kg s.c.)) is reported as “no significant effect”.
